Assay results from US20230021483A1, “[…] […] METHOD AND CLASSIFICATION OF PHARMACEUTICAL COMPONENTS BY USING TRANSCRIPTOMES” (National Institutes of Biomedical Innovation, Health and …, priority 2016, published 2023).

Key:
[1] = system: preferentially upregulated genes in LV, SP, LN; test: Z-score-based differential gene expression analysis (adjuvant group- or adjuvant-associated genes, 40 module mapping, TargetMine annotation); assay type: in vivo, C57BL/6 mice; details: for Shisa5 1437503_a_at (Group G1, Modules 20) / Stat1 1450033_a_at (Group G1, Modules 20) / Stat1 1450034_at (Group G1, Modules 20) / Tdrd7 1426716_at (Group G1, Modules 20) / Tor1aip2 1418115_s_at (Group G1, Modules 20) / Tor1aip2 1418116_at (Group G1, Modules 20) / Tor1aip2 1435526_at (Group G1, Modules 20) / Trim12a 1437432_a_at (Group G1, Modules 20) / Uba7 1426970_a_at (Group G1, Modules 20) / Adar 1425405_a_at (Group G1, Modules 20) / Adar 1434268_at (Group G1, Modules 20) / Ddx58 1436562_at (Group G1, Modules 20) / Ddx58 1456890_at (Group G1, Modules 20) / Eif2ak2 1422005_at (Group G1, Modules 20) / G3bp2 1421323_a_at (Group G1, Modules 20) / Gm9706///Isg15 1431591_s_at (Group G1, Modules 20) / H2-T10///H2-T22///H2-T9 1449875_s_at (Group G1, Modules 20) / Ifih1 1426276_at (Group G1, Modules 20) / Ifit1 1450783_at (Group G1, Modules 20) / Ifit3 1449025_at (Group G1, Modules 20) / Irf7 1417244_a_at (Group G1, Modules 20) / Irgm1 1418825_at (Group G1, Modules 20) / Mndal 1426906_at (Group G1, Modules 20) / Pml 1448757_at (Group G1, Modules 20) / Pml 1456103_at (Group G1, Modules 20) / Rnf213 1455500_at (Group G1, Modules 20) / Rsad2 1436058_at (Group G1, Modules 20) / Shisa5 1423986_a_at (Group G1, Modules 20): ID, LV
Method in brief: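 Gene groups for each organ were built from combined z-score cutoffs across adjuvants, ranging from z>1 to z>3. Scores came from fold changes standardized per gene over the whole organ data set, with the three replicate z-scores added per adjuvant; sums above 3 marked preferential expression.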

[2] = literature reports; cited from earlier work

With `Cc1ccc2c(=O)c3cccc(CC(=O)O)c3oc2c1C` [DMXAA, 5,6-dimethylxanthenone-4-acetic acid] the “Shisa5 1437503_a_at (Group G1, Modules 20)” value (from here on “Shisa5 1437503_a_at”) ([1]; sample x1) was 2.12, the “Stat1 1450033_a_at (Group G1, Modules 20)” value (from here on “Stat1 1450033_a_at”) ([1]; sample x1) was 1.5 and the “Stat1 1450034_at (Group G1, Modules 20)” value ([1]; sample x1) was 1.53. The “Tdrd7 1426716_at (Group G1, Modules 20)” value ([1]; sample x1) was 1.6, the “Tor1aip2 1418115_s_at (Group G1, Modules 20)” value (“Tor1aip2 1418115_s_at” for short) ([1]; sample x1) was 2.45 and the “Tor1aip2 1418116_at (Group G1, Modules 20)” value (“Tor1aip2 1418116_at” below) ([1]; sample x1) was 2.19. The “Tor1aip2 1435526_at (Group G1, Modules 20)” value (“Tor1aip2 1435526_at” for short) ([1]; sample x1) was 2.23, the “Trim12a 1437432_a_at (Group G1, Modules 20)” value (from here on “Trim12a 1437432_a_at”) ([1]; sample x1) was 1.82 and the “Uba7 1426970_a_at (Group G1, Modules 20)” value ([1]; sample x1) was 1.81. The “Adar 1425405_a_at (Group G1, Modules 20)” value ([1]; sample x2) was 1.5, the “Adar 1434268_at (Group G1, Modules 20)” value ([1]; sample x2) was 1.52 and the “Ddx58 1436562_at (Group G1, Modules 20)” value ([1]; sample x2) was 1.54. The “Ddx58 1456890_at (Group G1, Modules 20)” value ([1]; sample x2) was 1.93, the “Eif2ak2 1422005_at (Group G1, Modules 20)” value ([1]; sample x2) was 1.3 and the “G3bp2 1421323_a_at (Group G1, Modules 20)” value ([1]; sample x2) was 1.22. For the same compound, the “Gm9706///Isg15 1431591_s_at (Group G1, Modules 20)” value ([1]; sample x2) was 1.39, the “H2-T10///H2-T22///H2-T9 1449875_s_at (Group G1, Modules 20)” value ([1]; sample x2) was 1.64 and the “Ifih1 1426276_at (Group G1, Modules 20)” value ([1]; sample x2) was 1.09. The “Ifit1 1450783_at (Group G1, Modules 20)” value ([1]; sample x2) was 1.54, the “Ifit3 1449025_at (Group G1, Modules 20)” value ([1]; sample x2) was 1.3 and the “Irf7 1417244_a_at (Group G1, Modules 20)” value ([1]; sample x2) was 1.18. For the same compound, the “Irgm1 1418825_at (Group G1, Modules 20)” value ([1]; sample x2) was 1.33, the “Mndal 1426906_at (Group G1, Modules 20)” value ([1]; sample x2) was 1.19 and the “Pml 1448757_at (Group G1, Modules 20)” value ([1]; sample x2) was 1.35. For the same compound, the “Pml 1456103_at (Group G1, Modules 20)” value ([1]; sample x2) was 1.34, the “Rnf213 1455500_at (Group G1, Modules 20)” value ([1]; sample x2) was 1.2 and the “Rsad2 1436058_at (Group G1, Modules 20)” value ([1]; sample x2) was 1.25. For the same compound, the “Shisa5 1423986_a_at (Group G1, Modules 20)” value ([1]; sample x2) was 1.81, the “Shisa5 1437503_a_at” value ([1]; sample x2) was 1.62 and the “Stat1 1450033_a_at” value ([1]; sample x2) was 1.73. The “Stat1 1450034_at (Group G1, Modules 20)” value ([1]; sample x2) was 1.96, the “Tdrd7 1426716_at (Group G1, Modules 20)” value ([1]; sample x2) was 1.74 and the “Tor1aip2 1418115_s_at” value ([1]; sample x2) was 1.52. The “Tor1aip2 1418116_at” value ([1]; sample x2) was 1.92, the “Tor1aip2 1435526_at” value ([1]; sample x2) was 1.48 and the “Trim12a 1437432_a_at” value ([1]; sample x2) was 1.56. The “Uba7 1426970_a_at (Group G1, Modules 20)” value ([1]; sample x2) was 1.59, the “Adar 1425405_a_at (Group G1, Modules 20)” value ([1]; sample x3) was 0.93 and the “Adar 1434268_at (Group G1, Modules 20)” value ([1]; sample x3) was 0.92. The “Ddx58 1436562_at (Group G1, Modules 20)” value ([1]; sample x3) was 1.31, the “Ddx58 1456890_at (Group G1, Modules 20)” value ([1]; sample x3) was 1.56 and the “Eif2ak2 1422005_at (Group G1, Modules 20)” value ([1]; sample x3) was 0.68. The “G3bp2 1421323_a_at (Group G1, Modules 20)” value ([1]; sample x3) was 0.71, the “Gm9706///Isg15 1431591_s_at (Group G1, Modules 20)” value ([1]; sample x3) was 0.8 and the “H2-T10///H2-T22///H2-T9 1449875_s_at (Group G1, Modules 20)” value ([1]; sample x3) was 0.51. The “Ifih1 1426276_at (Group G1, Modules 20)” value ([1]; sample x3) was 0.78, the “Ifit1 1450783_at (Group G1, Modules 20)” value ([1]; sample x3) was 1.04 and the “Ifit3 1449025_at (Group G1, Modules 20)” value ([1]; sample x3) was 0.74. The “Irf7 1417244_a_at (Group G1, Modules 20)” value ([1]; sample x3) was 1, the “Irgm1 1418825_at (Group G1, Modules 20)” value ([1]; sample x3) was 0.79 and the “Mndal 1426906_at (Group G1, Modules 20)” value ([1]; sample x3) was 0.73. For the same compound, the “Pml 1448757_at (Group G1, Modules 20)” value ([1]; sample x3) was 0.83, the “Pml 1456103_at (Group G1, Modules 20)” value ([1]; sample x3) was 0.34 and the “Rnf213 1455500_at (Group G1, Modules 20)” value ([1]; sample x3) was 0.97. The “Rsad2 1436058_at (Group G1, Modules 20)” value ([1]; sample x3) was 0.44, the “Shisa5 1423986_a_at (Group G1, Modules 20)” value ([1]; sample x3) was 1.42 and the “Shisa5 1437503_a_at” value ([1]; sample x3) was 1.72. For the same compound, the “Stat1 1450033_a_at” value ([1]; sample x3) was 1.15, the “Stat1 1450034_at (Group G1, Modules 20)” value ([1]; sample x3) was 1.16 and the “Tdrd7 1426716_at (Group G1, Modules 20)” value ([1]; sample x3) was 1.09. For the same compound, the “Tor1aip2 1418115_s_at” value ([1]; sample x3) was 0.98, the “Tor1aip2 1418116_at” value ([1]; sample x3) was 1.37 and the “Tor1aip2 1435526_at” value ([1]; sample x3) was 1.01. The “Trim12a 1437432_a_at” value ([1]; sample x3) was 1.11, the “Uba7 1426970_a_at (Group G1, Modules 20)” value ([1]; sample x3) was 1.21 and the “preferentially induced biological process relative to adjuvants targeting the same receptor” value ([1]; LN, z-scores and 40 module mapping) was “preferentially induced RNA processing and gene expression responses more than cdiGMP or cGAMP”. The “adjuvant group-associated biological features” value ([1]; z-score selected genes, TargetMine and IPA upstream cytokine analyses) was “strongly associated with type I and type II interferon responses” and the Th response induced [2] was “induces Th2 responses”.
